Reference: patent US20240279220A1, “INDOLE COMPOUNDS AND METHODS OF USE” (Genzyme Corporation, priority 2021, published 2024)

system: NBD1/3D; test: Aggregation analysis using differential static light scattering (DSLS), NBD1 thermal stability; type: binding, Human; conditions: ΔTagg versus DMSO control; compound at 100 μM
Procedure: Purified recombinant NBD1 was produced using previously described methods (A. Schmidt, J. L. Mendoza, P. J. Thomas (2011) Biochemical and Biophysical Approaches to Probe CFTR Structure (365-376) M. D. Amaral, K. Kunzelmann (eds.), Cystic Fibrosis, Methods in Molecular Biology 741, Springer Science+Business Media). The effect of test compounds on thermal stability of NBD1 was evaluated by differential static light scattering (DSLS) using the Harbinger Stargazer-384 instrument (Epiphyte Three, Toronto, Canada).
Test compounds were dissolved and diluted to desired concentrations in 100% DMSO. The compounds or DMSO controls (100 nL) were stamped into wells of a […] low volume optical plate (Corning Inc., Corning, NY) using the Echo 555 acoustic liquid handler (Labcyte Inc., San Jose, CA).
NBD1 protein was diluted to 0.2 mg/ml in S200 buffer (50 mM Tris-HCl, 150 mM NaCl, 5 mM MgCl2, 2 mM ATP, 2 mM DTT, pH7.6) containing 1% glycerol. 10 uL of protein solution was aliquoted into the 384-well plate harboring the test compounds and 10 uL mineral oil was overlayed onto the protein solution, using the epMotion robotic liquid handler (Eppendorf North America, Hauppauge, NY). After placing into the Stargazer instrument, the plate was heated at 1° C. per minute to 70° C. Images were captured from 25° C. to 70° C. every 0.5° C. At the end of the experiment run, instrument software integrated image files and analyzed data automatically. A […] regression curve was generated for each well, representing the increase in light scattering over time. A temperature of aggregation (Tagg) was calculated based on the inflection point of the curve. To better compare data across experiments the average Tagg for DMSO control wells was calculated and subtracted from values for wells containing compounds to obtain a “ΔTagg” value. These ΔTagg values reflect stabilizing efficacy of the compounds.

| Compound | DSLS NBD1/3D Human Stability delta-T (° C.) @ 100 (μM) |
| --- | --- |
| O=C(O)CCCCc1cccc(Cc2nnc(-c3cccc(Oc4ccc5[nH]ccc5c4)c3)[nH]2)c1 [Example 258, 5-(3-((5-(3-((1H-indol-5-yl)oxy)phenyl)-4H-1,2,4-triazol-3-yl)methyl)phenyl)pentanoic acid] | C (C: ≤5° C.) |
| CS(=O)(=O)c1c(Oc2ccc(F)c(-c3nc(Cc4cccc(CCC(=O)O)c4)cs3)c2)c(F)cc2[nH]ccc12 [Example 93, 3-(3-((2-(2-fluoro-5-((6-fluoro-4-(methylsulfonyl)-1H-indol-5-yl)oxy)phenyl)thiazol-4-yl)methyl)phenyl)propanoic acid] | B (B: 5-10° C.) |
| Cc1c(Oc2cccc(-c3ccn(C(C)c4cccc(CC(=O)O)c4)n3)c2)ccc2[nH]ccc12 (centres unmarked) [Example 4, 2-(3-(1-(3-(3-((4-methyl-1H-indol-5-yl)oxy)phenyl)-1H-pyrazol-1-yl)ethyl)phenyl)acetic acid] | B (B: 5-10° C.) |
| Cn1nc(-c2cccc(Oc3c(F)cc4[nH]ccc4c3S(C)(=O)=O)c2)nc1Cc1cccc(CCC(=O)O)c1 [Example 31, 3-(3-((3-(3-((6-Fluoro-4-(methylsulfonyl)-1H-indol-5-yl)oxy)phenyl)-1-methyl-1H-1,2,4-triazol-5-yl)methyl)phenyl)propanoic acid] | B (B: 5-10° C.) |
| [2H]C([2H])([2H])C(C#N)(c1cc(F)cc(CCC(=O)O)c1)c1cnc(-c2cc(Oc3c(F)c(F)c4[nH]ccc4c3C)ccc2F)[nH]1 (centres unmarked) [Example 63, 3-(3-(1-cyano-1-(2-(5-((6,7-difluoro-4-methyl-1H-indol-5-yl)oxy)-2-fluorophenyl)-1H-imidazol-5-yl)ethyl-2,2,2-d3)-5-fluorophenyl)propanoic acid] | B (B: 5-10° C.) |
| CC(C#N)(c1cccc(CCC(=O)O)c1)c1cnc(-c2cc(Oc3c(F)c(F)c4[nH]ccc4c3F)ccc2F)[nH]1 (centres unmarked) [Example 54, 3-(3-(1-cyano-1-(2-(2-fluoro-5-((4,6,7-trifluoro-1H-indol-5-yl)oxy)phenyl)-1H-imidazol-5-yl)ethyl)phenyl)propanoic acid] | B (B: 5-10° C.) |
| Cc1c(Oc2cccc(-c3ccnn3C(C)c3cccc(CC(=O)O)c3)c2)ccc2[nH]ccc12 (centres unmarked) [Example 3, 2-(3-(1-(5-(3-((4-methyl-1H-indol-5-yl)oxy)phenyl)-1H-pyrazol-1-yl)ethyl)phenyl)acetic acid] | C (C: ≤5° C.) |
| O=C(O)CCc1cccc(C(O)c2cnc(-c3cccc(Oc4c(F)cc5[nH]ccc5c4-c4ccn[nH]4)c3)[nH]2)c1 (centres unmarked) [Example 267, 3-(3-((2-(3-((6-Fluoro-4-(1H-pyrazol-5-yl)-1H-indol-5-yl)oxy)phenyl)-1H-imidazol-5-yl)(hydroxy)methyl)phenyl)propanoic acid] | B (B: 5-10° C.) |
| CC(C#N)(c1cccc(CCC(=O)O)c1)c1cnc(-c2cc(Oc3nc4cc[nH]c4cc3F)ccc2F)[nH]1 (centres unmarked) [Example 61, 3-(3-(1-cyano-1-(2-(2-fluoro-5-((6-fluoro-1H-pyrrolo[3,2-b]pyridin-5-yl)oxy)phenyl)-1H-imidazol-5-yl)ethyl)phenyl)propanoic acid] | B (B: 5-10° C.) |
| C[C@H]1C[C@](c2cccc(CCC(=O)O)c2)(c2cnc(-c3cc(Oc4c(F)cc5[nH]ccc5c4F)ccc3F)[nH]2)CCO1 (single isomer, unassigned) [Example 152] | B (B: 5-10° C.) |
| CCC(C#N)(c1cccc(CCC(=O)O)c1)c1c[nH]c(-c2cc(Oc3c(F)cc4[nH]ccc4c3C)ccc2F)n1 (centres unmarked) [Example 51, 3-(3-(1-cyano-1-(2-(2-fluoro-5-((6-fluoro-4-methyl-1H-indol-5-yl)oxy)phenyl)-1H-imidazol-4-yl)propyl)phenyl)propanoic acid] | A (A: T ≥ 10° C.) |
| CC(O)(c1cccc(CC(F)C(=O)O)c1)c1cnc(-c2cc(Oc3c(F)cc4[nH]ccc4c3F)ccc2F)[nH]1 (centres unmarked) [Example 202, 3-(3-(1-(2-(5-((4,6-difluoro-1H-indol-5-yl)oxy)-2-fluorophenyl)-1H-imidazol-5-yl)-1-hydroxyethyl)phenyl)-2-fluoropropanoic acid] | A (A: T ≥ 10° C.) |
| CC(C)(c1cnc(-c2cc(Oc3ccc4[nH]ccc4c3F)ccc2F)[nH]1)c1cccc(CCC(=O)O)c1F [Example 162, 3-(2-fluoro-3-(2-(2-(2-fluoro-5-((4-fluoro-1H-indol-5-yl)oxy)phenyl)-1H-imidazol-5-yl)propan-2-yl)phenyl)propanoic acid] | B (B: 5-10° C.) |
| CC(O)(c1cccc(CCC(=O)O)c1)c1csc(-c2cccc(Oc3c(F)cc4[nH]ccc4c3S(C)(=O)=O)c2)n1 (centres unmarked) [Example 37, 3-(3-(1-(2-(3-((6-Fluoro-4-(methylsulfonyl)-1H-indol-5-yl)oxy)phenyl)thiazol-4-yl)-1-hydroxyethyl)phenyl)propanoic acid] | B (B: 5-10° C.) |
| CC(O)(c1cccc(CCC(=O)O)c1)c1cnc(-c2cc(Oc3c(F)cc4[nH]ccc4c3C(F)F)ccc2F)[nH]1 (centres unmarked) [Example 191, 3-(3-(1-(2-(5-((4-(difluoromethyl)-6-fluoro-1H-indol-5-yl)oxy)-2-fluorophenyl)-1H-imidazol-5-yl)-1-hydroxyethyl)phenyl) propanoic acid] | B (B: 5-10° C.) |
| Cc1nc(-c2cc(Oc3c(F)cc4[nH]ccc4c3F)ccc2F)[nH]c1C(O)c1cccc(CCC(=O)O)c1F (single isomer, unassigned) [Example 179, 3-(3-((2-(5-((4,6-difluoro-1H-indol-5-yl)oxy)-2-fluorophenyl)-4-methyl-1H-imidazol-5-yl)(hydroxy)methyl)-2-fluorophenyl)propanoic acid] | B (B: 5-10° C.) |
| CC(CC#N)(c1cccc(CCC(=O)O)c1)c1cnc(-c2cc(Oc3c(F)cc4[nH]ccc4c3F)ccc2F)[nH]1 (centres unmarked) [Example 77, 3-(3-(1-cyano-2-(2-(5-((4,6-difluoro-1H-indol-5-yl)oxy)-2-fluorophenyl)-1H-imidazol-5-yl)propan-2-yl)phenyl)propanoic acid] | B (B: 5-10° C.) |
| CO[C@]1(C)C[C@@](c2cccc(CCC(=O)O)c2)(c2cnc(-c3cc(Oc4c(F)c(F)c5[nH]ccc5c4S(C)(=O)=O)ccc3F)[nH]2)C1 [Example 70, rac-3-(3-((1r,3r)-1-(2-(5-((6,7-Difluoro-4-(methylsulfonyl)-1H-indol-5-yl)oxy)-2-fluorophenyl)-1H-imidazol-5-yl)-3-methoxy-3-methylcyclobutyl)phenyl)propanoic acid] | A (A: T ≥ 10° C.) |
| CC(C)(C)NCc1c(Oc2cccc(-c3ncc(C(O)c4cccc(CCC(=O)O)c4)[nH]3)c2)ccc2[nH]ccc12 (centres unmarked) [Example 263, 3-(3-((2-(3-((4-((tert-Butylamino)methyl)-1H-indol-5-yl)oxy)phenyl)-1H-imidazol-5-yl)(hydroxy)methyl)phenyl)propanoic acid] | A (A: T ≥ 10° C.) |
| COCCOC(C)(c1cccc(CCC(=O)O)c1)c1cnc(-c2cc(Oc3c(F)c(F)c4[nH]ccc4c3C)ccc2F)[nH]1 (centres unmarked) [Example 234, 3-(3-(1-(2-(5-((6,7-difluoro-4-methyl-1H-indol-5-yl)oxy)-2-fluorophenyl)-1H-imidazol-5-yl)-1-(2-methoxyethoxy)ethyl)phenyl) propanoic acid] | B (B: 5-10° C.) |
| Cc1c(Oc2ccc(F)c(-c3ncc(C4(c5cccc(CCC(=O)O)c5)CCN(CC(F)(F)F)CC4)[nH]3)c2)c(F)cc2[nH]ccc12 [Example 168, 3-(3-(4-(2-(2-fluoro-5-((6-fluoro-4-methyl-1H-indol-5-yl)oxy)phenyl)-1H-imidazol-5-yl)-1-(2,2,2-trifluoroethyl)piperidin-4-yl)phenyl)propanoic acid] | B (B: 5-10° C.) |
| CC(c1c[nH]c(-c2cc(Oc3c(F)cc4[nH]ccc4c3S(C)(=N)=O)ccc2F)n1)c1cccc(CCC(=O)O)c1F (single isomer, unassigned) [Example 136B, 3-(2-fluoro-3-(1-(2-(2-fluoro-5-((6-fluoro-4-(S-methylsulfonimidoyl)-1H-indol-5-yl)oxy)phenyl)-1H-imidazol-4-yl)ethyl)phenyl)propanoic acid] | A (A: T ≥ 10° C.) |
| Cc1c(Oc2ccc(F)c(-c3ncc(Cc4cccc(CCC(=O)O)c4F)[nH]3)c2)ccc2[nH]ccc12 [Example 116, 3-(2-fluoro-3-((2-(2-fluoro-5-((4-methyl-1H-indol-5-yl)oxy)phenyl)-1H-imidazol-5-yl)methyl)phenyl)propanoic acid] | B (B: 5-10° C.) |
